The values that follow come from article PMC10545732, “Structure-based drug discovery of a corticotropin-releasing hormone receptor 1 antagonist using an X-ray free-electron laser” (Experimental & Molecular Medicine, 2023).

Molecules are shown by their SMILES.

A short description of data set [1]: In vitro BBB permeability assay. It counts as in vitro ADME, human. Conditions: human; 10 μM apical, 12-h incubation, hCMEC/D3 monolayer; read-out: permeability coefficient. The method, then: (§1) Human cerebral microvascular endothelial cells (hCMECs/D3, SCC066; Sigma-Aldrich) were used to assess the permeability of CRF1R antagonists across the BBB. hCMECs were seeded on Falcon^TM cell culture inserts (08-770, Fisher Scientific) with 0.4 μm pore sizes precoated with collagen type I from rat tails (354236, Corning) at a density of 50,000 cells/mL in endothelial cell growth medium-2 (EGM-2, CC-3162; Lonza). The medium was changed with EGM-2 every three to four days for proliferation and with EGM-2 containing 2.5% human serum (SLBX6020, Sigma-Aldrich) for differentiation. Cell culture inserts were transferred into 24-well plates containing 700 μL of EGM-2 in each well (basolateral compartment) for the permeability assay. The medium in the inserts (apical compartment) was then replaced with 300 μL EGM-2 containing 10 μM BMK-C203 or BMK-C205. Apical and basolateral compartments were collected after a 12-h incubation at 37 °C, and drug concentrations were measured using HPLC. For sample preparation, 50 μL of the sample was mixed with 10 μL of an internal standard solution (d4-cortisol). Subsequently, 50 μL of acetonitrile was added, and the mixture was centrifuged at 16,000×g for 10 min for protein precipitation. The supernatants were used for LC‒MS analysis with a triple quadrupole mass spectrometer coupled with HPLC using a C18 reversed-phase column. The concentration of the antagonists was determined using a calibration curve. The permeability coefficient (P) was calculated according to Pardridge et al.[34]. The permeability-surface area product (PS, in cm^3/s) was divided by the filter surface area A (in cm^2) using Eq. (1) as follows:1 Pcm/s=Vd×△Ma/A×[…]×△t where Vd is the volume in the donor compartment in cm^3, ΔMa is the total amount of the compound in the […] compartment after t seconds, Md is the donor amount, Δt is the incubation time, and A is the filter area in cm^2.

Another data set has as its target T1, CYP2C19 (Homo sapiens, UniProt P33261).
T1 construct: 0.25 mg/mL human liver microsomes; from tissue; host or cells: human liver microsomes
In words: CYP inhibition assay CYP2C19 (S-mephenytoin 4-hydroxylase). In kind it is in vitro ADME. Conditions: 10 μM, human liver microsomes, n = 3.

The test system of the next data set is hCMECs/D3. Briefly: In vitro BBB permeability assay. It counts as in vitro ADME, human. The protocol: as §1

T1 sequence (P33261 whole entry): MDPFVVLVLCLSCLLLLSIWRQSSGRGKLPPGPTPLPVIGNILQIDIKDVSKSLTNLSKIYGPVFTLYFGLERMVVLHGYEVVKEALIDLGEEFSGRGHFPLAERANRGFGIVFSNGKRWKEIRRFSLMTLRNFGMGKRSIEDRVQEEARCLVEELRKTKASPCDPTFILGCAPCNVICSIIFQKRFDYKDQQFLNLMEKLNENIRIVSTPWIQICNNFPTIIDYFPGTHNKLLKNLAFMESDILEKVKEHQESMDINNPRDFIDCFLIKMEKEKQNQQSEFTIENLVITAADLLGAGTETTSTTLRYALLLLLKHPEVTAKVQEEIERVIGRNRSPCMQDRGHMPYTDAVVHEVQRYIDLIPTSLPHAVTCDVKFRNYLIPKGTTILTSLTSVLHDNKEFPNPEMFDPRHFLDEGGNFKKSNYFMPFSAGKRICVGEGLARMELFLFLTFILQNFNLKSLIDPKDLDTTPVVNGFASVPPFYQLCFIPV
Method for CYP2C19: Phenacetin O-demethylase, diclofenac 4-hydroxylase, S-mephenytoin 4-hydroxylase, dextromethorphan O-demethylase, and midazolam 1’-hydroxylase activities were determined as probe activities for CYP1A2, CYP2C9, CYP2C19, CYP2D6, and CYP3A4, respectively, using cocktail incubation. […] The cocktail incubation mixtures consisted of 0.25 mg/mL human liver microsomes, 0.1 M phosphate buffer (pH 7.4), an NADPH regeneration system, and inhibitors (CRF1R antagonist compounds, 10 µM) in a total volume of 100 μL. The final volume of the organic solvents in the incubation mixture was 1% (v/v). […] All incubations were performed in triplicate, and the mean values were used for analysis. The samples were then centrifuged at 15,000 rpm for 5 min at 4 °C. […] The CYP-mediated activities in the presence of inhibitors were expressed as percentages of the corresponding control values.

In the case of `COc1cc(Br)cc(OC)c1-c1c(C)nn2c(N(CCCC(F)(F)F)CCCC(F)(F)F)nc(C)nc12` [BMK-C203], in data set [1], the Papp at 12 h, 10 µM was determined as 0.0296 ×10⁻⁶ cm/s. Besides, the “CYP2C19, percentage of control activity” value on CYP2C19 was 83.2 ± 0.5 percentage of control activity.

Regarding `CCCCN(CC1CC1)c1nc(C)nc2c(-c3c(OC)cc(Br)cc3OC)c(C)nn12` [BMK-C205], the Papp at 12 h, 10 µM in data set [1] stood at 0.211 ×10⁻⁶ cm/s. Moreover, the “permeability coefficient relative to BMK-C203” value with hCMECs/D3 is listed as “seven times higher”. Besides, at CYP2C19, the “CYP2C19, percentage of control activity” value is 89.7 ± 3.8 percentage of control activity.
